Data reported in ChEMBL document CHEMBL1132682, “High affinity retinoic acid receptor antagonists: analogs of AGN 193109” (Bioorg Med Chem Lett, 1999).
pKd: −log10 of the molar value.

Columns and labels:
[1] = biological target: T1, Retinoic acid receptor gamma (Homo sapiens, UniProt P13631); experiment: Ability to displace 3[H](all-E)-retinoic acid (5 nM) from Retinoic acid receptor gamma using transactivation assay
T1 sequence (P13631 whole entry): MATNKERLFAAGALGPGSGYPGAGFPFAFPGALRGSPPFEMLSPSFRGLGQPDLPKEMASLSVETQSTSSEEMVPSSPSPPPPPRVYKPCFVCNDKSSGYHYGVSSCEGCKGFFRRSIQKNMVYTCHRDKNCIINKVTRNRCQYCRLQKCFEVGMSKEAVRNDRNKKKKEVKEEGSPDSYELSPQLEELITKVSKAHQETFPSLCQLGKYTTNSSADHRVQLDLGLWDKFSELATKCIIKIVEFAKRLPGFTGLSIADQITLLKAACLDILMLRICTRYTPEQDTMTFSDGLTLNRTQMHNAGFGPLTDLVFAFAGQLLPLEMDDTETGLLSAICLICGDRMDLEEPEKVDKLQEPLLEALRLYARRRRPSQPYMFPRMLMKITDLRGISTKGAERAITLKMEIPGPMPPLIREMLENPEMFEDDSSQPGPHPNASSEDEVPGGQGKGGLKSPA

[2] = biological target: T2, Retinoic acid receptor beta (Homo sapiens, UniProt P10826); experiment: Ability to displace 3[H](all-E)-retinoic acid (5 nM) from beta retinoic acid receptor (beta RAR) using transactivation assay
T2 sequence (P10826 whole entry): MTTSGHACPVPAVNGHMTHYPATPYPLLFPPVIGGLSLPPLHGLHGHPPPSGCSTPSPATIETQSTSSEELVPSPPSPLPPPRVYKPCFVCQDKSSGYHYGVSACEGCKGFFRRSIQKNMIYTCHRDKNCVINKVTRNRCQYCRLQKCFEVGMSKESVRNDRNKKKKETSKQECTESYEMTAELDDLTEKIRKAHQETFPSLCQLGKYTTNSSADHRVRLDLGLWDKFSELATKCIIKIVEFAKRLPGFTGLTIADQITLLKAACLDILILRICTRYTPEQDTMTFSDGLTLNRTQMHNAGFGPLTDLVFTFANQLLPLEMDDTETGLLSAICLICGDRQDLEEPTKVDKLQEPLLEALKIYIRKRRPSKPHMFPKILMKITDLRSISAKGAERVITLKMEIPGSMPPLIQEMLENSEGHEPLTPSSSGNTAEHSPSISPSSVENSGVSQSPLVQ

[3] = biological target: T3, Retinoic acid receptor alpha (Homo sapiens, UniProt P10276); experiment: Ability to displace 3[H](all-E)-retinoic acid (5 nM) from alpha retinoic acid receptor (alpha RAR) using transactivation assay
T3 sequence (P10276 whole entry): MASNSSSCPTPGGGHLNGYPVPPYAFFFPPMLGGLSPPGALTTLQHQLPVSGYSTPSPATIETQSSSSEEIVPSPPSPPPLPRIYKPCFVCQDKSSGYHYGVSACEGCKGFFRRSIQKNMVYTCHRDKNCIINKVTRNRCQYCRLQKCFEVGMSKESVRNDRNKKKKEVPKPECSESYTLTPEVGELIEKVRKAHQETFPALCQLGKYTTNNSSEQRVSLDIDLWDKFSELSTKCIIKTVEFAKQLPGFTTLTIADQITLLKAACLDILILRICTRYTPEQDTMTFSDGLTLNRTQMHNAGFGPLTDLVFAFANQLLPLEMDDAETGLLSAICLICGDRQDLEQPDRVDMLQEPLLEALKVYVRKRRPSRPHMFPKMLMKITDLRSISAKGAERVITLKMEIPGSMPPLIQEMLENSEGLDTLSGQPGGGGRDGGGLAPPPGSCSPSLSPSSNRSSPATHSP

Row | Structure (SMILES) | pKd [1] | pKd [2] | pKd [3]
1 | CC1(C)CC=C(c2ccc(O)cc2)c2cc(C#Cc3ccc(C(=O)O)cc3)ccc21 | 7.01 | 7.14 | 6.64
2 | CC(C)c1ccc(C2=CCC(C)(C)c3ccc(C#Cc4ccc(C(=O)O)cc4)cc32)cc1 | 6.77 | 7.96 | 7.05
3 | CCc1ccc(C2=CCC(C)(C)c3ccc(C#Cc4ccc(C(=O)O)cc4)cc32)cc1 | 7.72 | 8.00 | 7.40
4 | CC1(C)CC=C(c2ccccc2)c2cc(C#Cc3ccc(C(=O)O)cc3)ccc21 | 7.38 | 7.48 | 6.83
5 | Cc1ccccc1C1=CCC(C)(C)c2ccc(C#Cc3ccc(C(=O)O)cc3)cc21 | 7.46 | 7.54 | 6.99
6 | CC1(C)CC=C(c2ccc(C(F)(F)F)cc2)c2cc(C#Cc3ccc(C(=O)O)cc3)ccc21 | 7.24 | 7.54 | 7.36
7 | COc1ccc(C2=CCC(C)(C)c3ccc(C#Cc4ccc(C(=O)O)cc4)cc32)cc1 | 7.44 | 7.80 | 7.22
8 | CC1(C)CC=C(c2ccc(C#N)cc2)c2cc(C#Cc3ccc(C(=O)O)cc3)ccc21 | 7.29 | 7.85 | 7.42
9 | CC(C)(C)c1ccc(C2=CCC(C)(C)c3ccc(C#Cc4ccc(C(=O)O)cc4)cc32)cc1 | 7.03 | 7.68 | 6.75

Results, then the compound that gave them:

Row | pKd [1] | pKd [2] | pKd [3] | Structure (SMILES)
10 | 7.17 | 7.29 | 6.56 | Cc1cccc(C2=CCC(C)(C)c3ccc(C#Cc4ccc(C(=O)O)cc4)cc32)c1
11 | 6.39 | 6.56 | 5.98 | Cc1cc(C)cc(C2=CCC(C)(C)c3ccc(C#Cc4ccc(C(=O)O)cc4)cc32)c1
12 | 7.57 | 7.74 | 7.24 | CC1(C)CC=C(c2ccc(Cl)cc2)c2cc(C#Cc3ccc(C(=O)O)cc3)ccc21
13 | 7.09 | 7.28 | 7.07 | CC1(C)CC=C(c2ccc(F)cc2)c2cc(C#Cc3ccc(C(=O)O)cc3)ccc21
14 | 6.60 | 6.79 | 6.04 | CC1(C)CC=C(c2cccc(O)c2)c2cc(C#Cc3ccc(C(=O)O)cc3)ccc21
15 | 8.15 | 8.15 | 7.80 | Cc1ccc(C2=CCC(C)(C)c3ccc(C#Cc4ccc(C(=O)O)cc4)cc32)cc1
